Measurements from ChEMBL document CHEMBL5154832, “Design, Synthesis, and Proof-of-Concept of Triple-Site Inhibitors against Aminoacyl-tRNA Synthetases” (J Med Chem, 2022).
pIC50, pKd: −log10 of the molar value. In brackets after ≈: the same amount, converted by molar mass.

What was measured:
Salmonella enterica [1] = experiment: Antibacterial activity against Salmonella enterica 87 strain assessed as inhibition of bacterial growth incubated in M9 medium for 8 hrs by CLSI protocol based microdilution assay; assay type: functional
Pseudomonas aeruginosa = experiment: Antibacterial activity against Pseudomonas aeruginosa ATCC27853 strain assessed as inhibition of bacterial growth incubated for 8 hrs by CLSI protocol based microdilution assay; assay type: functional
Staphylococcus aureus [2] = experiment: Antibacterial activity against Staphylococcus aureus MRSA R3708 strain assessed as inhibition of bacterial growth incubated for 8 hrs by CLSI protocol based microdilution assay; assay type: functional
Escherichia coli [3] = experiment: Antibacterial activity against Escherichia coli ATCC 25922 strain assessed as inhibition of bacterial growth incubated for 8 hrs by CLSI protocol based microdilution assay; assay type: functional
Escherichia coli [4] = experiment: Antibacterial activity against Escherichia coli acraB strain assessed as inhibition of bacterial growth incubated for 8 hrs by CLSI protocol based microdilution assay; assay type: functional
Enterococcus faecalis = experiment: Antibacterial activity against Enterococcus faecalis ATCC 29212 strain assessed as inhibition of bacterial growth incubated for 8 hrs by CLSI protocol based microdilution assay; assay type: functional
Staphylococcus aureus [5] = experiment: Antibacterial activity against Staphylococcus aureus ATCC 29213 strain assessed as inhibition of bacterial growth incubated for 8 hrs by CLSI protocol based microdilution assay; assay type: functional
[6] = target: T1, Threonine--tRNA ligase (Salmonella enterica) (UniProt A0A3F3IEK2); experiment: Inhibition of recombinant salmonella enterica threonyl-tRNA synthetase assessed as reduction in enzyme activity at 10 uM incubated for 20 min by Kinase Glo luminescence assay relative to control
T1 sequence (whole entry): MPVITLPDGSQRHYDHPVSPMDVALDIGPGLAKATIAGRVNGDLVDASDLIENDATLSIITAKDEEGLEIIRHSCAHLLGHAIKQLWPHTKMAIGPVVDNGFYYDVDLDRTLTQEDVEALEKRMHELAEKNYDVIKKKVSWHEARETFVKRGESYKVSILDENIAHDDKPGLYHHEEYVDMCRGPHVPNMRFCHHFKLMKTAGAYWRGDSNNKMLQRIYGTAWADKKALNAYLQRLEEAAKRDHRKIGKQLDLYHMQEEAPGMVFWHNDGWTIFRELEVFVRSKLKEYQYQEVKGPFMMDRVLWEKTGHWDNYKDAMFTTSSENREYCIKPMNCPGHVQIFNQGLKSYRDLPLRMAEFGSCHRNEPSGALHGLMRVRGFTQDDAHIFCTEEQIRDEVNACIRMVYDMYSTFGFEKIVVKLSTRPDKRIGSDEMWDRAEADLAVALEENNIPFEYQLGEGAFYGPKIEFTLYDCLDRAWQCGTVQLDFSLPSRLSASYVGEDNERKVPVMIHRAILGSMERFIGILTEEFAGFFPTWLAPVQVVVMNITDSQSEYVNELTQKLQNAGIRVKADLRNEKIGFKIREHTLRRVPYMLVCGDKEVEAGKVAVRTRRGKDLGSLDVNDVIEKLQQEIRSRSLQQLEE

Salmonella enterica [7] = experiment: Antibacterial activity against Salmonella enterica 87 strain assessed as inhibition of bacterial growth incubated for 8 hrs by CLSI protocol based microdilution assay; assay type: functional
[8] = target: T1, Threonine--tRNA ligase (Salmonella enterica); experiment: Binding affinity to recombinant salmonella enterica threonyl-tRNA synthetase assessed as change in melting temperature at 0.1 mM by fluorescence-based thermal shift assay
Threonine--tRNA ligase [9] = target: T2, Threonine--tRNA ligase (Salmonella enterica, UniProt A0A3F3IEK2); experiment: Binding affinity to full length recombinant salmonella enterica threonyl-tRNA synthetase assessed as dissociation constant in presence of L-threonine by isothermal titration calorimetry assay
T2 sequence (A0A3F3IEK2 whole entry): T1 sequence (whole entry)

Threonine--tRNA ligase [10] = target: T2, Threonine--tRNA ligase; experiment: Binding affinity to full length recombinant salmonella enterica threonyl-tRNA synthetase assessed as dissociation constant in presence of tRNA Leucine by isothermal titration calorimetry assay
Threonine--tRNA ligase [11] = target: T2, Threonine--tRNA ligase; experiment: Binding affinity to full length recombinant salmonella enterica threonyl-tRNA synthetase assessed as dissociation constant by isothermal titration calorimetry assay
Threonine--tRNA ligase [12] = target: T2, Threonine--tRNA ligase; experiment: Binding affinity to full length recombinant salmonella enterica threonyl-tRNA synthetase assessed as dissociation constant in presence of ATP by isothermal titration calorimetry assay
Threonine--tRNA ligase [13] = target: T2, Threonine--tRNA ligase; experiment: Binding affinity to full length recombinant salmonella enterica threonyl-tRNA synthetase assessed as dissociation constant in presence of tRNA Threonine by isothermal titration calorimetry assay
Threonine--tRNA ligase [14] = target: T2, Threonine--tRNA ligase; experiment: Binding affinity to full length recombinant salmonella enterica threonyl-tRNA synthetase assessed as dissociation constant in presence of glycine by isothermal titration calorimetry assay
Threonine--tRNA ligase [15] = target: T2, Threonine--tRNA ligase; experiment: Inhibition of recombinant salmonella enterica threonyl-tRNA synthetase assessed as reduction in enzyme activity incubated for 20 min by Kinase Glo luminescence assay

Structure (SMILES)	MIC (Salmonella enterica [1])	MIC (Pseudomonas aeruginosa)	MIC (Staphylococcus aureus [2])	MIC (Escherichia coli [3])	MIC (Escherichia coli [4])	MIC (Enterococcus faecalis)	MIC (Staphylococcus aureus [5])	inhibition [6]	MIC (Salmonella enterica [7])	ΔTm [8]	pKd (Threonine--tRNA ligase [9])	pKd (Threonine--tRNA ligase [10])	pKd (Threonine--tRNA ligase [11])	pKd (Threonine--tRNA ligase [12])	pKd (Threonine--tRNA ligase [13])	pKd (Threonine--tRNA ligase [14])	pIC50 (Threonine--tRNA ligase [15])
C[C@@H](O)[C@H](N)C(=O)NCC=CCn1cnc2cc(Cl)c(Cl)cc2c1=O	16 µg/mL (≈ 41.5 µM)	≥ 128 µg/mL	≥ 128 µg/mL	≥ 128 µg/mL	64 µg/mL (≈ 166 µM)	64 µg/mL (≈ 166 µM)	≥ 128 µg/mL	45%	64 µg/mL (≈ 166 µM)	17.6 °C	–	–	–	–	–	–	–
C[C@@H](O)[C@H](N)C(=O)N[C@@H](CNC(=O)CCn1cnc2cc(Cl)c(Cl)cc2c1=O)c1cccc(-c2ccc3c(c2)CNC3=O)c1	–	≥ 128 µg/mL	≥ 128 µg/mL	≥ 128 µg/mL	≥ 128 µg/mL	≥ 128 µg/mL	≥ 128 µg/mL	> 99%	≥ 128 µg/mL	33.6 °C	6.54	7.43	7.45	7.12	6.78	7.35	7.72
C[C@@H](O)[C@H](N)C(=O)N(CCC(=O)NCCn1cnc2cc(Br)c(Cl)cc2c1=O)Cc1cccc(-c2ccc3c(c2)CNC3=O)c1	–	64 µg/mL (≈ 92 µM)	≥ 128 µg/mL	≥ 128 µg/mL	64 µg/mL (≈ 92 µM)	64 µg/mL (≈ 92 µM)	≥ 128 µg/mL	80%	≥ 128 µg/mL	25.4 °C	–	–	–	–	–	–	5.29
C[C@@H](O)[C@H](N)C(=O)N[C@@H](CNC(=O)CCn1cnc2cc(Br)c(Cl)cc2c1=O)c1cccc(-c2ccc3[nH]ncc3c2)c1	–	≥ 128 µg/mL	≥ 128 µg/mL	≥ 128 µg/mL	≥ 128 µg/mL	≥ 128 µg/mL	≥ 128 µg/mL	> 99%	≥ 128 µg/mL	28 °C	–	–	–	–	–	–	6.71

Now those with a lower MIC (Pseudomonas aeruginosa), led by results:

MIC (Salmonella enterica [1])	MIC (Pseudomonas aeruginosa)	MIC (Staphylococcus aureus [2])	MIC (Escherichia coli [3])	MIC (Escherichia coli [4])	MIC (Enterococcus faecalis)	MIC (Staphylococcus aureus [5])	inhibition [6]	MIC (Salmonella enterica [7])	ΔTm [8]	pKd (Threonine--tRNA ligase [9])	pKd (Threonine--tRNA ligase [10])	pKd (Threonine--tRNA ligase [11])	pKd (Threonine--tRNA ligase [12])	pKd (Threonine--tRNA ligase [13])	pKd (Threonine--tRNA ligase [14])	pIC50 (Threonine--tRNA ligase [15])	Structure (SMILES)
–	32 µg/mL (≈ 48 µM)	32 µg/mL (≈ 48 µM)	≥ 128 µg/mL	16 µg/mL (≈ 24 µM)	32 µg/mL (≈ 48 µM)	32 µg/mL (≈ 48 µM)	91%	≥ 128 µg/mL	22.6 °C	–	–	–	–	–	–	5.79	C[C@@H](O)[C@H](N)C(=O)N[C@@H](CNC(=O)CCn1cnc2cc(Br)c(Cl)cc2c1=O)c1cccc(-c2ccc3[nH]ccc3c2)c1
–	16 µg/mL (≈ 28.3 µM)	32 µg/mL (≈ 56.5 µM)	≥ 128 µg/mL	32 µg/mL (≈ 56.5 µM)	32 µg/mL (≈ 56.5 µM)	16 µg/mL (≈ 28.3 µM)	> 99%	≥ 128 µg/mL	22.6 °C	–	–	–	–	–	–	6.26	C[C@@H](O)[C@H](N)C(=O)N[C@@H](CNC(=O)CCn1cnc2cc(Cl)c(F)cc2c1=O)c1cccc(-c2ccccc2)c1
